Data taken from patent US8450525B2, “Histone deacetylase inhibitors” (Orchid Chemicals & Pharmaceuticals Limited, priority 2007, dated 2013).

Experiments:
[1] = test system: HCT 116 (colon) cells; experiment: Anti-cancer screen, growth inhibition (MTT); assay type: cell-based; settings: Homo sapiens, HCT-116 cells, 48 hours of incubation
Method: (§1) Experimental drugs were screened for anti-cancer activity in three cell fines using five concentrations for each compound.
(§2) Following 24-hour incubation, test compounds were added to the 96 well plates. Each plate contains one of the above cell lines and the following samples in triplicate: five different dilutions (0.01, 0.1, 1, 10 and 100 μM) of four test compounds, appropriate dilutions of a cytotoxic standard and growth medium (untreated) wells. […] SAHA was used as standard drug in these experiments.
(§3) For T0 measurement, 24 hours after seeding the cells, 20 μL of 3-(4.5-dimethyl-2-thiazolyl)-2,5-diphenyl-2H-tetrazolium (MTT) solution per well was added to the ‘T0’ plate and incubated for 3 hours at 37° C. in a CO2 incubator. The plate containing cells and test compounds was treated similarly after 48 hours of incubation. After 3 hours of MTT addition, well contents were aspirated carefully followed by addition of 150 μL DMSO per well. Plates were agitated to ensure dissolution of the formazan crystals in DMSO and absorbance was read at 570 nm (A570).

[2] = test system: NCI-H460 (lung) cells; experiment: Anti-cancer screen, growth inhibition (MTT); assay type: cell-based; settings: Homo sapiens, 48 hours of incubation
Method: as §1, §2, §3

[3] = test system: U251 (glioma) cells; experiment: Anti-cancer screen, growth inhibition (MTT); assay type: cell-based; settings: Homo sapiens, U-251 cells, 48 hours of incubation
Method: as §1, §2, §3

[4] = test system: T1, HDAC (Mouse Liver Extract); experiment: HDAC inhibition assay using Boc-Lys(Ac)-AMC substrate, mouse liver enzyme; assay type: biochemical;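 for IC50: IC50 for inhibition of HDAC activity in mouse liver extract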
T1 construct: Mouse liver enzyme (10 mg/ml) was diluted 1:6 with HDAC buffer
Method: Histone Deacetylase (HDAC) Inhibition Assay using Boc-Lys (Ac)-AMC Substrate: Inhibition of HDAC has been implicated to modulate transcription and to induce apoptosis or differentiation in cancer cells. The fluorometric assay provides a fast and fluorescence based method that eliminates radioactivity, extractions or chromatography, as used in traditional assays. The assay is based on two steps. First, the HDAC fluorometric substrate, which comprises an acetylated lysine side chain, is incubated with a sample containing HDAC activity (Mouse Liver Extract). Deacetylation of the substrate sensitizes the substrate, in the second step; treatment with the Trypsin stop solution produces a fluorophore that can be easily analyzed using fluorescence plate reader.
Assay was done in 96-well black microplate and total volume of the assay was 100 μL. Mouse liver enzyme (10 mg/ml) was diluted 1:6 with HDAC buffer. Enzyme cocktail was made of 10 μL of diluted enzyme and 30 μL of HDAC buffer. 40 μl of enzyme cocktail followed by 10 μL of test compound (1 μM and 10 μM) or buffer (control) was added to each well. The plate was pre-incubated at 37° C. for 5 minutes. The HDAC reaction was started by adding 50 μl of HDAC substrate Boc-Lys (Ac)-AMC (Bachem AG, Switzerland). The plate was incubated at 37° C. for 30 minutes. […] Measuring the fluorescence at excitation wavelength of 360 nm and emission wavelength of 460 nm monitored the release of AMC. Buffer alone and substrate alone served as blank.

SMILES	GI50 [1] [µM]	GI50 [2] [µM]	GI50 [3] [µM]	HDAC Inhibition % (1 μM) [4] [%]	HDAC Inhibition % (10 μM) [4] [%]	IC50 [4] [nM]
Nc1ccccc1NC(=O)/C=C/c1ccc(/C=C(/C(=O)NC2CC2)c2ccc3c(c2)OCO3)cc1 [Example 64, N-Cyclopropyl-3-(4-((1E)-3-(2-aminophenylamino)-3-oxoprop-1-en-1-yl}phenyl)-2-[benzodioxol-5-yl]-acrylamide]	44	52	78	22.6	48.8	–
Nc1ccccc1NC(=O)/C=C/c1ccc(/C=C(/C(=O)NC2CC2)c2ccccc2F)cc1 [Example 65, N-Cyclopropyl-3-(4-((1E)-3-(2-aminophenylamino)-3-oxoprop-1-en-1-yl}phenyl)-2-(2-fluorophenyl)acrylamide]	> 100	80	82	31.2	56.2	–
Nc1ccccc1NC(=O)/C=C/c1ccc(/C=C(/C(=O)NC2CC2)c2cccc(Cl)c2)cc1 [Example 66, N-Cyclopropyl-3-(4-((1E)-3-(2-aminophenylamino)-3-oxoprop-1-en-1-yl}phenyl)-2-(3-chlorophenyl)acrylamide]	> 100	> 100	> 100	41.6	72.4	–
Cc1ccc(/C(=C\c2ccc(/C=C/C(=O)Nc3ccccc3N)cc2)C(=O)NC2CC2)cc1 [Example 67, (E)-N-Cyclopropyl-3-(4-((1E)-3-(2-aminophenylamino)-3-oxoprop-1-en-1-yl}phenyl)-2-(4-methylphenyl)acrylamide]	36	40	> 100	31.5	59.5	–
COc1cccc(/C(=C\c2ccc(/C=C/C(=O)Nc3ccccc3N)cc2)C(=O)NC2CC2)c1 [Example 69, N-Cyclopropyl-3-(4-((1E)-3-(2-aminophenylamino)-3-oxoprop-1-en-1-yl}phenyl)-2-(3-methoxyphenyl)acrylamide]	94	74	> 100	25.5	54.4	–
Nc1ccccc1NC(=O)/C=C/c1ccc(/C=C(/C(=O)NC2CC2)c2ccccc2)cc1 [Example 70, N-Cyclopropyl-3-(4-((1E)-3-(2-aminophenylamino)-3-oxoprop-1-en-1-yl}phenyl)-2-phenylacrylamide]	> 100	> 100	> 100	34.0	36.0	–
Nc1ccccc1NC(=O)/C=C/c1ccc(/C=C(/C(=O)NC2CC2)c2cccs2)cc1 [Example 71, N-Cyclopropyl-3-(4-((1E)-3-(2-aminophenylamino)-3-oxoprop-1-en-1-yl}phenyl)-2-(thiophen-2-yl)acrylamide]	> 100	> 100	0.6	28.0	37.0	–
Nc1ccccc1NC(=O)/C=C/c1ccc(/C=C(/C(=O)N2CCOCC2)c2ccccc2F)cc1 [Example 72]	20	50	20	24.8	52.0	–
Nc1ccccc1NC(=O)/C=C/c1ccc(/C=C(/C(=O)NC2CC2)c2ccc(F)c(F)c2)cc1 [Example 73, N-Cyclopropyl-3-(4-((1E)-3-(2-aminophenylamino)-3-oxoprop-1-en-1-yl}phenyl)-2-(3,4-difluorophenyl)acrylamide]	10.1	> 100	> 100	12.0	21.8	–
COc1ccc(/C(=C\c2ccc(/C=C/C(=O)Nc3ccccc3N)cc2)C(=O)NC2CC2)cc1OC [Example 74, N-Cyclopropyl-3-(4-((1E)-3-(2-aminophenylamino)-3-oxoprop-1-en-1-yl}phenyl)-2-(3,4-dimethoxyphenyl)acrylamide]	100	> 100	90	12.3	12.1	–
O=C(/C=C/c1ccc(/C=C(/C(=O)NC2CC2)c2ccc(F)cc2)cc1)NCCCCCC(=O)NO [Example 75, 6-((1E)-3-(4-(3-(Cyclopropylamino)-2-(4-fluorophenyl)-3-oxoprop-1-en-1-yl)phenyl)acrylamido)-N-hydroxyhexanamide]	23	38	30	70.3	94.4	–
O=C(/C=C/c1ccc(/C=C(/C(=O)NC2CC2)c2ccccc2Cl)cc1)NCCCCCC(=O)NO [Example 77, 6-((1E)-3-(4-(3-(Cyclopropylamino)-2-(2-chlorophenyl)-3-oxoprop-1-en-1-yl)phenyl)acrylamido)-N-hydroxyhexanamide]	5	2.3	10.5	97.8	100.0	3
O=C(/C=C/c1ccc(/C=C(/C(=O)NC2CC2)c2ccccc2F)cc1)NCCCCCC(=O)NO [Example 78, 6-((1E)-3-(4-(3-(Cyclopropylamino)-2-(2-fluorophenyl)-3-oxoprop-1-en-1-yl)phenyl)acrylamido)-N-hydroxyhexanamide]	5.6	10.3	22	98.1	99.9	–
O=C(/C=C/c1ccc(/C=C(/C(=O)NC2CC2)c2ccc3c(c2)OCO3)cc1)NCCCCCC(=O)NO [Example 79, 6-((1E)-3-(4-(3-(Cyclopropylamino)-2-[benzodioxol-5-yl]-3-oxoprop-1-en-1-yl)phenyl)acrylamido)-N-hydroxyhexanamide]	8.2	2.2	3.2	99.1	100.0	14
O=C(/C=C/c1ccc(/C=C(/C(=O)NC2CC2)c2cccc(Cl)c2)cc1)NCCCCCC(=O)NO [Example 80, 6-((1E)-3-(4-(3-(Cyclopropylamino)-2-(3-chlorophenyl)-3-oxoprop-1-en-1-yl)phenyl)acrylamido)-N-hydroxyhexanamide]	4	19	0.8	100.0	100.0	< 1
Cc1ccc(/C(=C\c2ccc(/C=C/C(=O)NCCCCCC(=O)NO)cc2)C(=O)NC2CC2)cc1 [Example 81, 6-((1E)-3-(4-(3-(Cyclopropylamino)-2-(4-methylphenyl)-3-oxoprop-1-en-1-yl)phenyl)acrylamido)-N-hydroxyhexanamide]	5	11	0.4	97.0	100.0	10
O=C(/C=C/c1ccc(/C=C(/C(=O)NC2CC2)c2ccccc2)cc1)NCCCCCC(=O)NO [Example 82, 6-((1E)-3-(4-(3-(cyclopropylamino)-2-phenyl-3-oxoprop-1-enyl)phenyl)acrylamido)-N-hydroxyhexanamide]	3	1	7	93.2	98.6	8.5
COc1ccc(/C(=C\c2ccc(/C=C/C(=O)NCCCCCC(=O)NO)cc2)C(=O)NC2CC2)cc1 [Example 84, 6-((1E)-3-(4-(3-(Cyclopropylamino)-2-(4-methoxyphenyl)-3-oxoprop-1-en-1-yl)phenyl)acrylamido)-N-hydroxyhexanamide]	24	70	24	93.5	96.5	–
COc1cccc(/C(=C\c2ccc(/C=C/C(=O)NCCCCCC(=O)NO)cc2)C(=O)NC2CC2)c1 [Example 85, 6-((1E)-3-(4-(3-(Cyclopropylamino)-2-(3-methoxyphenyl)-3-oxoprop-1-en-1-yl)phenyl)acrylamido)-N-hydroxyhexanamide]	26	69	10.1	96.0	100.0	–
